Results taken from ChEMBL document CHEMBL4145500, “First homology model of Plasmodium falciparum glucose-6-phosphate dehydrogenase: Discovery of selective substrate analog-based inhibitors as novel antimalarial agents” (Eur J Med Chem, 2018).

Tests used:
[1] = Cytotoxicity against human HepG2 cells assessed as cell viability at 1.5 to 2 mM after 24 hrs by EZ4U staining-based spectrophotometric analysis relative to control; details: read-out: Activity
[2] = test system: Plasmodium falciparum; assay: Antiparasitic activity against Plasmodium falciparum Dd2 clone MRA-150 synchronized ring stage after 48 hrs by PicoGreen dye based microfluorimetric analysis; assay type: functional, organism-based; details: Dd2 clone MRA-150, 48 h
[3] = molecular target: T1, Glucose-6-phosphate 1-dehydrogenase (Homo sapiens, UniProt P11413); assay: Inhibition of recombinant full length human G6PD expressed in Escherichia coli HB351 using G6P as substrate in presence of NADP+ by spectrofluorimetric analysis
T1 sequence (P11413 whole entry): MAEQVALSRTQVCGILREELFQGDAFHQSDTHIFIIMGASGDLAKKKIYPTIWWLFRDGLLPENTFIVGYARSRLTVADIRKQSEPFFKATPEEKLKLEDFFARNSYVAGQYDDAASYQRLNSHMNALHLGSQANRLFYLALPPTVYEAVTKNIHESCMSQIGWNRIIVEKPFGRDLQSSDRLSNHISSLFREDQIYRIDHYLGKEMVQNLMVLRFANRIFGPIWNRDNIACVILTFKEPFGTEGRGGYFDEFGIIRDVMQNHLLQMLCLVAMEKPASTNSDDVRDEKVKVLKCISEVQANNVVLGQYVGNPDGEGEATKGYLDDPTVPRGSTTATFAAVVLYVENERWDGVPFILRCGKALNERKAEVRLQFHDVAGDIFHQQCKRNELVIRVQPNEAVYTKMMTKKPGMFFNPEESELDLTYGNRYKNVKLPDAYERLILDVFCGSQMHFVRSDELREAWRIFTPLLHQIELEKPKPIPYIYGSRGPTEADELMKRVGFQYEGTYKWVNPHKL

[4] = Selectivity index, ratio of Ki for recombinant full length human G6PD to Ki for Plasmodium falciparum G6PD-6PGL
[5] = Cytotoxicity against human HepG2 cells assessed as cell survival at 0.2 to 1 mM after 24 hrs by EZ4U staining-based spectrophotometric analysis relative to control; details: read-out: Survival
[6] = molecular target: T2, Bifunctional glucose-6-phosphate 1-dehydrogenase/6-phosphogluconolactonase (Plasmodium falciparum (isolate 3D7), UniProt Q8IKU0); assay: Inhibition of Plasmodium falciparum G6PD-6PGL using G6P as substrate in presence of NADP+ by spectrofluorimetric analysis
T2 sequence (Q8IKU0 whole entry): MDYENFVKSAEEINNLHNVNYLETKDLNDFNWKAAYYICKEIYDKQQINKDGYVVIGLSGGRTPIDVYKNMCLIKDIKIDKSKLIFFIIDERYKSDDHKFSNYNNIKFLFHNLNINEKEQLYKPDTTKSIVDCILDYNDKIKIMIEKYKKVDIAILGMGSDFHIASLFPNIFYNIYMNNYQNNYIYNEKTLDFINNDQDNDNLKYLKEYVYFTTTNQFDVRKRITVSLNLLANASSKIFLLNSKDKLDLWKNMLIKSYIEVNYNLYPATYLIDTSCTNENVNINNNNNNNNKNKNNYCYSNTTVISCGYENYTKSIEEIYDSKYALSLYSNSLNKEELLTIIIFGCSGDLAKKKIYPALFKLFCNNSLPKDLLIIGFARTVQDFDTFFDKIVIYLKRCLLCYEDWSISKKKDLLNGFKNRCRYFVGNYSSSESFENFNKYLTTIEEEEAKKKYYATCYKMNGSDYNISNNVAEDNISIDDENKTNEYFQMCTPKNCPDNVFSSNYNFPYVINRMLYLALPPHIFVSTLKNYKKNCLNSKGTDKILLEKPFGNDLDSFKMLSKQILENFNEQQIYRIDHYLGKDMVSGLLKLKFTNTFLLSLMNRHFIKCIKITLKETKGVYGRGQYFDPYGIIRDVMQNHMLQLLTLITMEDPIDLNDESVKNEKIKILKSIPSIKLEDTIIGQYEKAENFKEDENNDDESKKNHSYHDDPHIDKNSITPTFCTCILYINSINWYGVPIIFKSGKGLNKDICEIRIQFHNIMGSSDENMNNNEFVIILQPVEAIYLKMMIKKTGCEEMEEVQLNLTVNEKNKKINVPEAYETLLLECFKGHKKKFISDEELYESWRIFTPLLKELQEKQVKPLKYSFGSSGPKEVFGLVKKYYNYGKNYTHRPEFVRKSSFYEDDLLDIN

[7] = molecular target: T1, Glucose-6-phosphate 1-dehydrogenase; assay: Competitive inhibition of recombinant full length human G6PD expressed in Escherichia coli HB351 using G6P as substrate in presence of NADP+ by Lineweaver-Burk plot analysis
[8] = molecular target: T2, Bifunctional glucose-6-phosphate 1-dehydrogenase/6-phosphogluconolactonase; assay: Competitive inhibition of Plasmodium falciparum G6PD-6PGL using G6P as substrate in presence of NADP+ by Lineweaver-Burk plot analysis

SMILES	viability at 24 h, 2000 µM [1] [%]	IC50 [2] [µM]	Ki [3] [µM]	Ratio Ki [4]	viability at 24 h, up to 1000 µM [5] [%]	Ki [6] [µM]	IC50 [7] [µM]	IC50 [8] [µM]
CO[C@H]1O[C@H](CSCCCN)[C@@H](O)[C@H](O)[C@H]1O	< 80	> 2000	129	0.4	> 80	289		
CO[C@H]1O[C@H](CSCCN)[C@@H](O)[C@H](O)[C@H]1O		1750	> 2000	> 26	> 80	76.1		
CO[C@H]1O[C@H](CS(=O)(=O)CCC#N)[C@@H](O)[C@H](O)[C@H]1O		960	> 200	> 2.9	> 80	68.8		
CO[C@H]1O[C@H](CNS(=O)(=O)CCN)[C@@H](O)[C@H](O)[C@H]1O		1470	> 400	> 18	> 80	22.8		
CO[C@H]1O[C@H](CS(=O)(=O)CCCN)[C@@H](O)[C@H](O)[C@H]1O	< 80	> 2000	35.4	1	> 80	34.4		
CCN1CCC[C@@H]1CNC(=O)c1ccc2c(c1)NC(=O)/C(=C/c1ccccc1F)S2							> 80	0.9
CO[C@H]1O[C@H](CNS(=O)(=O)CCNC(=N)N)[C@@H](O)[C@H](O)[C@H]1O	< 80	330	16.8	0.5	> 80	32.4		
CCN1CCC[C@@H]1CNC(=O)c1ccc2c(c1)NC(=O)c1cccc(C)c1S2							> 80	0.19
CO[C@H]1O[C@H](CSCCC#N)[C@@H](O)[C@H](O)[C@H]1O		1020	> 200	> 0.8	> 80	259		
CO[C@H]1O[C@H](CS(=O)(=O)CCCNC(=N)N)[C@@H](O)[C@H](O)[C@H]1O	< 80	1570	22.3	0.5	> 80	42.9		
CO[C@H]1O[C@H](CSCCNC(=N)N)[C@@H](O)[C@H](O)[C@H]1O		590	> 200	> 4.4	> 80	45.6		
